Results from patent US12419976B2, “Hybrid tracers for targeted cancer imaging and treatment” (ACADEMISCH ZIEKENHUIS LEIDEN (H.O.D.N. LUMC), priority 2018, dated 2025).
Values joined by “and” are separate entries in the source; they are usually repeats but may differ in a detail not shown here. Equal entries are not always repeated. Where a SMILES comes first, the peptide text is derived from it. [ ]: non-standard residue; d: D form. The star is where a group is joined. X1 = O=C(O)CC[C@H](NC(=O)N[C@@H](CCCCNC(=O)CCCCCCC(=O)*)C(=O)O)C(=O)O; d2Nal = N[C@H](Cc1ccc2ccccc2c1)C(=O)O; Mercaptoacetyl = O=C(CS)*

Assays:
[1] = Lipophilicity logP(o/w) of 99mTc-labeled hybrid tracers; assay type: physicochemical; conditions: octanol/water, n = 6
serum albumin = serum albumin (Homo sapiens, UniProt P02768); experiment: Plasma protein binding (serum binding); assay type: in vitro ADME; conditions: for fraction unbound: serum albumin, n = 3 (Table 3); for Plasma protein binding (PPB): FIG. 2A
Source text: FIG. 2 illustrates the results for plasma protein interaction assays for exemplary hybrid tracer compounds. A) Plasma protein binding as a percentage of the indicated hybrid tracers bound to serum albumin. All hybrid tracers portray significant differences (p<0.05) except when noted (ns).
Serum binding, or rather plasma protein binding (PPB) is a useful pharmacokinetic characteristic for the initial assessment of tracer candidates prior to in vivo use as PPB is directly related to, e.g., blood retention and clearance rates. All hybrid tracers have PPB with values between 52-89% with an average of 76±12% (FIG. 2A). The benzo[e]indole-containing hybrid tracers (EuK(Ar)-Cy5-MAS3, EuK-Cy5-(Ar)MAS3 and EuK(Ar)Cy5-(Ar)MAS3) tend to have the highest PPB. […] This can be explained by Sudlow's site, a binding pocket in albumin's subdomain IIA, which binds bulky heterocyclic anions. No clear correlation could be found between c log D and serum binding. Even though PPB has a relation to the lipophilicity, it was expected that we could not predict the PPB based on the c log D as the PPB cannot be explained by a single physiochemical characteristic.

[2] = Stability in serum at 37° C., absorbance and fluorescence after 24 h; assay type: in vitro ADME; conditions: for Serum stability after 24 h, remaining absorbance / Serum stability after 24 h, remaining fluorescence: n = 2
Description: Not only serum binding, but also the stability in serum is valuable. This characteristic is another brick in the wall for the preclinical evaluation of hybrid tracers since this indicates a compound's in vivo stability. Clearly, any compound degrading in an in vivo environment is not suited for clinical use. All hybrid tracers were incubated in serum at 37° C. and their absorbance and fluorescence were measured after 24 h.

[3] = tested on: orthotopically transplanted PC346C cells; experiment: Ex vivo biodistribution in tumour-bearing mice; conditions: for Hepatic clearance: FIG. 5C, in %ID/g; for Tumour-to-fat ratio (T/F): FIG. 5D
Description: (§1) A) In vivo SPECT imaging. Coronal SPECT imaging image of prostate tumour-bearing mice injected with either one of the PSMA hybrid tracer analogues. Organs are denoted as Lu (lungs), Li (liver), G (gallbladder), S (spleen), K (kidneys), B (bladder) and T (tumour). B) Comparison of biodistribution of the hybrid tracer matrix compared to the clinically approved tracer PSMA I&S, with C) providing the biodistribution of hybrid tracer EUK(SO3)—CY5-MAS3. Biodistribution pattern at 2 h post injection of the different hybrid tracers from the matrix compared to the reference tracer PSMA I&S depicted as percentage of the injected dose per gram tissue (% ID/g).
FIG. 5 illustrates biodistribution parameters and tumour uptake for exemplary hybrid tracers. Overview of A) the % Injected activity found in all excised organs percentage of the injected activity that remained at 2 h post tracer injection (all ns), B) the amount of radioactivity still present in the blood pool and C) no significant differences in hepatic clearance between the compounds. To highlight the visibility of the tumour over background tissue notorious for occluding signal within the area of the prostate, the D) tumour-to-fat and E) the tumour-to-blood ratio are provided for the individual hybrid tracers. Significance portrayed as: nothing (non-significant) *(p≤0.05) **(p≤0.01) ***(p≤0.001).
(§2) The in vivo characteristics were investigated in male BALB/c nude mice using orthotopically transplanted PC346C cells. These mice were analysed in various ways, i.e., in vivo nuclear imaging (SPECT) in tumour-bearing mice, in vivo optical imaging (fluorescence imaging) in tumour-bearing mice, ex vivo biodistribution (percentage injected dose per gram (% ID/g)) in healthy and tumour-bearing mice and ex vivo fluorescence imaging.

PSMA [4] = molecular target: T1, PSMA (Homo sapiens, UniProt Q04609); experiment: Competitive binding assay, LNCaP cells, EuK[125I]I-BA radioligand; conditions: for IC50: human LNCaP cells, EuK[125I]I-BA competitive radioligand, n ≥ 3, read-out: IC50 (PSMA affinity)
T1 construct: endogenous in cells; host or cells: LNCaP cells
Description: (§3) Fluoresence confocal microscopy was utilised as a tool for receptor localisation. As depicted in FIG. 3, a typical PSMA-targeting tracer brightly stains the extracellular receptor. IC50 was determined in a competitive binding assay using human LNCaP cells and EuK[^125I]I-BA as competitive radioligand.

[5] = Photophysical properties of Cy5 dyes and hybrid tracers in PBS; assay type: physicochemical; conditions: for Brightness: determined using the ε of the hybrid tracer's corresponding fluorophore
Description: The brightness of a dye—one of the most important photophysical characteristics in a clinical setting—is the product of its molar extinction coefficient (e) and quantum yield (ϕF). We therefore set out to determine the e of each fluorophore by creating a linear concentration range (7.5-0.25 μM) in PBS and measuring the corresponding absorbance (Table 1). The addition of a sulfonate on the carboxylic-acid-containing indoline moiety diminishes the epsilon and the use of extra aryl moieties on the cyanine backbone greatly diminishes the dyes' solvability and thus their epsilon is greatly diminished as well.
The ϕF of a fluorophore is the relation between the number of photons emitted divided by the number of photons absorbed by a single molecule. It is therefore also called the emission efficiency. […] Perhaps an asymmetrical cyanine core, with its significant electron density imbalance, is an inefficient fluorophore. In line with our expectations-since the benzo[e]indole caused J-aggregate formation, the ϕF of benzo[e]indole-containing fluorophores were diminished. […] The only trend derived from the abovementioned data is that the free fluorophore benefits (when optimising emission efficiency) from symmetrical substituents on the cyanine structure.
As the brightness of a fluorophore (or hybrid tracer) is one of its most important photophysical traits, we calculated the brightness for all fluorophores. In order to give insight in the hybrid tracer's optical performance, the brightness was determined by using the ε of its corresponding fluorophore in PBS. […] EuK(SO3)-Cy5-MAS3 thus contains the most favourable photophysical characteristics out of these 6 exemplary hybrid tracers.

[6] = tested on: orthotopically transplanted PC346C cells; experiment: In vivo SPECT imaging in tumour-bearing mice; conditions: tumour-bearing nude BALB/c mice, FIG. 4A
Description: as §1, §2

PSMA [7] = molecular target: T1, PSMA; experiment: Fluorescence confocal microscopy of LNCaP cells; assay type: cell-based; conditions: FIG. 3
Description: A) provides a brightfield image of incubated cells. B) provides an overlay of confocal images of incubated cells with Cy5-related signal of the PSMA-targeting tracer in red, the nucleus in blue and lysosomes in the cytoplasm in green. C) provides an overlay of the confocal and brightfield images.
as §3

T1 sequence (Q04609 whole entry): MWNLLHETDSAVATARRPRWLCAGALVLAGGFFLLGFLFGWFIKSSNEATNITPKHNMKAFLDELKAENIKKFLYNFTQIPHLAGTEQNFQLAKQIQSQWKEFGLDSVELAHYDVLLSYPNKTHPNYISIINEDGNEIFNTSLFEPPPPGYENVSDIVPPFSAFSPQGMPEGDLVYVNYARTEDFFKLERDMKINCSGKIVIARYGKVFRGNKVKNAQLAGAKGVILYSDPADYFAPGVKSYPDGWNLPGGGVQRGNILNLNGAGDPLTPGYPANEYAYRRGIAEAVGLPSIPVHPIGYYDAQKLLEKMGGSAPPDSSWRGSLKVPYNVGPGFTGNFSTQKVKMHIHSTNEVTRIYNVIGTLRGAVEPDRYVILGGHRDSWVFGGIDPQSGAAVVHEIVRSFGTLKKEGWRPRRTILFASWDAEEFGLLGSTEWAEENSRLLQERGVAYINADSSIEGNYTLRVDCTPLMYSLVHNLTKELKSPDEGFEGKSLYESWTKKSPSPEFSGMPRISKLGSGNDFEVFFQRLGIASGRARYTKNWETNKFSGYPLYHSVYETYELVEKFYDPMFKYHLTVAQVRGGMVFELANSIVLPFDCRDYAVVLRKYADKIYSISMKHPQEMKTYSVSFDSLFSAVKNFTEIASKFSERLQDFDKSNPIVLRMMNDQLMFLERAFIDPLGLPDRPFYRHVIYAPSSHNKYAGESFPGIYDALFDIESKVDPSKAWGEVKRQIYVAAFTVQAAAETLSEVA
Chain of serum albumin (P02768 25-609): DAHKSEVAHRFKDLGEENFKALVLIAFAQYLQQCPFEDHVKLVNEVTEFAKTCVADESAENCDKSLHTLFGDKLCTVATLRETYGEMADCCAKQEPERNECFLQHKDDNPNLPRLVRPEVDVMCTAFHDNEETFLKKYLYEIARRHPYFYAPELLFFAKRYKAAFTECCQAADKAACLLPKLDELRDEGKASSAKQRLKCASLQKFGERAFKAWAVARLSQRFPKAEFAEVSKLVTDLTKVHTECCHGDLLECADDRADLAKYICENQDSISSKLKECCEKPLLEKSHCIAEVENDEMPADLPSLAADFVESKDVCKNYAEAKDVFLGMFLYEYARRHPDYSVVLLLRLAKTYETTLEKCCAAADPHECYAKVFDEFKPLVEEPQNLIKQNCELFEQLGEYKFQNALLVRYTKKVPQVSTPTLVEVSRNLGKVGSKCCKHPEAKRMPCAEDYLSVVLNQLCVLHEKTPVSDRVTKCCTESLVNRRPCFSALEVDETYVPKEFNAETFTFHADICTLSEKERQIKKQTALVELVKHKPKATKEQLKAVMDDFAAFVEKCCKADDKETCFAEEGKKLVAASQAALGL

Structure (SMILES)	logP [1]	fraction unbound (serum albumin)	Serum stability after 24 h, remaining absorbance [2] [% remaining]	Serum stability after 24 h, remaining fluorescence [2] [% remaining]	Hepatic clearance [3]	Tumour-to-fat ratio (T/F) [3]	IC50 (PSMA [4])	Stokes shift [5] [nm]	ΦF (quantum yield) [5] [%]	λem [5] [nm]	λex [5] [nm]	Plasma protein binding (PPB) (serum albumin)	Nuclear (SPECT) imaging of the tumour [6]	Brightness [5]	Kidney accumulation ([3]; biodistribution 2 h post injection) [ID/g]	Tumour-to-blood ratio (T/B) ([3]; FIG. 5E)	Staining of LNCaP cells (confocal) (PSMA [7])	PSMA affinity relative to EuK-Cy5(SO3)-MAS3 (PSMA [4]; ratio of affinities)	Serum stability (comparison between tracers) ([2]; p<0.05)	Blood retention ([3]; 2 h post injection, FIG. 5B) [ID/g]
CC(=O)SCC(=O)NC(CO)C(=O)NC(CO)C(=O)NC(CO)C(=O)NCCCCCC(=O)NCCCCN1C(=CC=CC=CC2=[N+](CCCCCC(=O)NCCCCC(NC(=O)NC(CCC(=O)O)C(=O)O)C(=O)O)c3ccccc3C2(C)C)C(C)(C)c2ccccc21 (stereo not shown) [EuK-Cy5-MAS3]	-2.13 ± 0.1	0.117	80 ± 6	86 ± 5	19.93±13.44	2542±287	175 ± 61.6 nM	18	16	663	644									
CC(=O)SCC(=O)NC(CO)C(=O)NC(CO)C(=O)NC(CO)C(=O)NCCCCCC(=O)NCCCCN1C(=CC=CC=CC2=[N+](CCCCCC(=O)NCCCCC(NC(=O)NC(CCC(=O)O)C(=O)O)C(=O)O)c3ccccc3C2(C)C)C(C)(C)c2cc(S(=O)(=O)[O-])ccc21 (stereo not shown) [EuK-Cy5-(SO3)MAS3]	-2.7 ± 0.01	0.126	82 ± 7	85 ± 1		2658±659	119 ± 117 nM	16	7	664	648	significantly higher than the PPB of EuK-Cy5-MAS3	clear nuclear imaging of the tumour	10^‡ 10^3 M^−1 · cm^−1						
O=C(O)CC[C@H](NC(=O)N[C@@H](CCCCNC(=O)CCCCCCC(=O)NCCCC[C@@H](NC(=O)[C@@H](Cc1ccc2ccccc2c1)NC(=O)[C@@H](Cc1ccc(O)cc1)NC(=O)[C@@H](CO)NC(=O)[C@@H](CO)NC(=O)[C@@H](CO)NC(=O)CS)C(=O)O)C(=O)O)C(=O)O [PSMA I&S, reference compound] (Mercaptoacetyl-[dS][dS][dS][dY][d2Nal][dK](X1)-OH)															186.0±23.0					
CC(=O)SCC(=O)NC(CO)C(=O)NC(CO)C(=O)NC(CO)C(=O)NCCCCCC(=O)NCCCCN1C(=CC=CC=CC2=[N+](CCCCCC(=O)NCCCCC(NC(=O)NC(CCC(=O)O)C(=O)O)C(=O)O)c3ccc(S(=O)(=O)[O-])cc3C2(C)C)C(C)(C)c2ccccc21 (stereo not shown) [EuK(SO3)-Cy5-MAS3]	-2.86 ± 0.05	0.15	97 ± 2	89 ± 6	2.90±2.06		19 nM and 19.2 nM	16		664	648	significantly higher than the PPB of EuK-Cy5-MAS3	clear nuclear imaging of the tumour			1713	PSMA-related staining of LNCaP cells	more than 9 fold		
CC(=O)SCC(=O)NC(CO)C(=O)NC(CO)C(=O)NC(CO)C(=O)NCCCCCC(=O)NCCCCN1C(=CC=CC=CC2=[N+](CCCCCC(=O)NCCCCC(NC(=O)NC(CCC(=O)O)C(=O)O)C(=O)O)c3ccc4ccccc4c3C2(C)C)C(C)(C)c2c1ccc1ccccc21 (stereo not shown) [EuK(Ar)-Cy5-(Ar)MAS3]					0.87±0.66		345 nM	18	14	700	682	highest PPB	clear nuclear imaging of the tumour	7^‡ 10^3 M^−1 · cm^−1					significantly lower serum stability	
CC(=O)SCC(=O)NC(CO)C(=O)NC(CO)C(=O)NC(CO)C(=O)NCCCCCC(=O)NCCCCN1C(=CC=CC=CC2=[N+](CCCCCC(=O)NCCCCC(NC(=O)NC(CCC(=O)O)C(=O)O)C(=O)O)c3ccc4ccccc4c3C2(C)C)C(C)(C)c2ccccc21 (stereo not shown) [EuK(Ar)-Cy5-MAS3]	-1.75 ± 0.1	0.093	85 ± 3	79 ± 1	0.94±0.13 and 1.10±0.14		113 ± 35.9 nM	18	9	682	664	highest PPB		3^‡ 10^3 M^−1 · cm^−1						6.91±1.08
CC(=O)SCC(=O)NC(CO)C(=O)NC(CO)C(=O)NC(CO)C(=O)NCCCCCC(=O)NCCCCN1C(=CC=CC=CC2=[N+](CCCCCC(=O)NCCCCC(NC(=O)NC(CCC(=O)O)C(=O)O)C(=O)O)c3ccccc3C2(C)C)C(C)(C)c2c1ccc1ccccc21 (stereo not shown) [EuK-Cy5-(Ar)MAS3]	-1.84 ± 0.06	0.11	75 ± 0	76 ± 0			164 ± 76.9 nM	17	9	680	663	highest PPB		5^‡ 10^3 M^−1 · cm^−1						
